According to patent US20050014849A1, “Antifungal phenylethylene” (priority 2001, published 2005):
≈ marks a conversion by molar mass, not a printed value. Entries after “also recorded” stand apart in the source; their conditions may differ.

What was measured:
C. neoformans ATCC 90112 = assay: Broth macrodilution MIC/MFC; type: cell-based, Cryptococcus neoformans; settings: for MFC / MIC: Cryptococcus neoformans
Method: (§1) TMPN was screened against yeasts by the broth macrodilution assay according to the NCCLS [7]. Yeasts were suspended and diluted as recommended to yield final inocula ranging from 0.5-2.5×10^3 cfu/ml. Tests were performed in sterile 12 by 75 mm plastic tubes containing two-fold dilutions of TMPN in 0.165 M morpholinepropanesulfonic acid buffered RPMI 1640 medium (pH 7.0). One tube was again left drug free (but contained an equivalent volume of DMSO) for a turbidity control. Tubes were incubated without agitation at the appropriate temperature (see Fungal Strains section above). MICs were determined after 72 h for Cryptococcus and after 48 h for other yeast genera. The MIC was defined as the lowest concentration of TMPN that inhibited all visible growth of the test organism (optically clear).
(§2) Minimum fungicidal concentrations (MFCs) were determined by subculturing 0.1 ml from each tube with no visible growth in the MIC broth macrodilution series onto the appropriate drug-free plates (see Fungal Strains section above).
(§3) Possible host effects were also evaluated. Broth macrodilution assays were performed with RPMI medium prepared at pH 5, pH 6, and pH 7, and in RPMI medium with and without 50% normal human serum (Lampire Biological Labs). The pH experiments were performed twice on separate days.

[1] = test system: C. uniguttulatus ATCC 34143; assay: Broth macrodilution MIC/MFC; type: cell-based, Cryptococcus uniguttulatus
Method: as §1, §2

[2] = test system: C. uniguttulatus ATCC 66033; assay: Broth macrodilution MIC/MFC; type: cell-based, Cryptococcus uniguttulatus
Method: as §1, §2

C. parapsilosis (10) = assay: Broth macrodilution MIC/MFC; type: cell-based, Candida parapsilosis
Method: as §1, §2

[3] = test system: C. parapsilosis ATCC 22019; assay: Broth macrodilution MIC/MFC; type: cell-based, Candida parapsilosis
Method: as §1, §2

C. glabrata (8) = assay: Broth macrodilution MIC/MFC; type: cell-based, Candida glabrata
Method: as §1, §2

C. glabrata ATCC 2001 = assay: Broth macrodilution MIC/MFC; type: cell-based, Candida glabrata
Method: as §1, §2

C. glabrata ATCC 90030 = assay: Broth macrodilution MIC/MFC; type: cell-based, Candida glabrata
Method: as §1, §2

[4] = test system: C. viswanathii ATCC 22981; assay: Broth macrodilution MIC/MFC; type: cell-based, Candida viswanathii
Method: as §1, §2

T. ovoides ATCC 90040 = assay: Broth macrodilution MIC/MFC; type: cell-based, Trichosporon ovoides
Method: as §1, §2

[5] = test system: Epidermophyton floccosum ATCC 52066; assay: Broth macrodilution MIC/MFC; type: cell-based
[6] = test system: Paecilomyces lilacinus (1); assay: Broth macrodilution MIC/MFC, filamentous fungi; type: cell-based
Method: (§4) Susceptibility testing of filamentous fungi was also conducted. Broth macrodilution susceptibility testing of P. lilacinus, Rhizopus spp. and Aspergillus spp. was performed in accordance with a proposed standardized procedure with slight modification. To induce conidium and sporangiospore formation, fungi were grown on PDA slants at 35° C. for 6 days (P. lilacinus, Rhizopus spp., all Aspergillus species except A. nidulans) or 3 days (A. nidulans). Fungal slants were covered with sterile 0.85% NaCl (P. lilacinus, Rhizopus spp., all Aspergillus species except A. nidulans) or 0.05% Tween 80 (A. nidulans), and suspensions were made by gently probing the colonies with the tip of a sterile Pasteur pipette. The resulting mixture of hyphal fragments and conidia or sporangiospores was withdrawn and transferred to a sterile clear microcentrifuge tube, and heavy particles were allowed to settle for 10 min. The upper homogenous suspension was transferred to a sterile microcentrifuge tube, vortexed for 15 s, adjusted spectrophotometrically, and diluted in sterile 0.165 M MOPS-buffered RPMI medium, pH 7.0, to yield final inocula ranging from 0.5-2.5×10^3 cfu/ml. Susceptibility to TMPN was then determined by broth macrodilution as described above for yeast isolates. MICs were read after 48 h The MIC was defined as the lowest concentration of TMPN that inhibited all visible growth of the test organism (optically clear).
as §2

[7] = test system: Rhizopus oligosporus ATCC 22959; assay: Broth macrodilution MIC/MFC, filamentous fungi; type: cell-based
Method: as §4, §2

[8] = test system: R. nigracans (ASU culture collection); assay: Broth macrodilution MIC/MFC, filamentous fungi; type: cell-based, Rhizopus nigracans
Method: as §4, with “The upper homogenous suspension was transferred to a sterile microcentrifuge tube, vortexed for 15 s, adjusted spectrophotometrically, and diluted in sterile 0.165 M MOPS-buffered RPMI medium, pH 7.0, to yield final inocula ranging from 0.5-2.5×10^3 cfu/ml.” left out, “MICs were read after 48 h The MIC was defined as the lowest concentration of TMPN that inhibited all visible growth of the test organism (optically clear).” left out
as §2

A. nidulans strain FGSC4 = assay: Broth macrodilution MIC/MFC, filamentous fungi; type: cell-based, Aspergillus nidulans
Method: as §4, with “The upper homogenous suspension was transferred to a sterile microcentrifuge tube, vortexed for 15 s, adjusted spectrophotometrically, and diluted in sterile 0.165 M MOPS-buffered RPMI medium, pH 7.0, to yield final inocula ranging from 0.5-2.5×10^3 cfu/ml.” left out, “MICs were read after 48 h The MIC was defined as the lowest concentration of TMPN that inhibited all visible growth of the test organism (optically clear).” left out
as §2

[9] = test system: 132 reference strains and clinical isolates; assay: Broth macrodilution MIC/MFC, all fungi tested (summary); type: cell-based
Method: as §1, §4, §2, §3

bovine brain tubulin = test system: T1, bovine brain tubulin; assay: Colchicine binding assay; settings: 10 min at 37° C.
T1 construct: Electrophoretically homogeneous bovine brain tubulin [12]
Method: Electrophoretically homogeneous bovine brain tubulin [12] was used in studies to evaluate the effects of TMPN on in vitro tubulin polymerization and the binding of […] (Dupont-NEN) to tubulin. These studies were performed as described previously. In the polymerization assay, varying drug concentrations were added to 1 mg/ml tubulin to determine the amount of drug that would inhibit the extent of the reaction by 50% (20 min incubation at 30° C.) (IC50 value). In the colchicine binding assay, the effect of varying drug concentrations on the binding of 2 μg/ml colchicine to 100 μg/ml tubulin was measured after 10 min at 37° C. (control reaction about 50% complete).

[10] = ATCC90112, Cryptococcus neoformans ATCC 90112, 20 μg/ml bovine serum albumin
[11] = ATCC90112, Cryptococcus neoformans ATCC 90112, 40 μg/ml bovine serum albumin
[12] = ATCC90112, Cryptococcus neoformans ATCC 90112, no bovine serum albumin
[13] = ATCC90112, Cryptococcus neoformans ATCC 90112, no serum
[14] = ATCC90112, pH 5, Cryptococcus neoformans ATCC 90112, pH 5
[15] = ATCC90112, pH 5, Cryptococcus neoformans ATCC 90112, pH 5, repeat experiment
[16] = ATCC90112, pH 6, Cryptococcus neoformans ATCC 90112, pH 6
[17] = ATCC90112, pH 6, Cryptococcus neoformans ATCC 90112, pH 6, repeat experiment
[18] = ATCC90112, pH 7, Cryptococcus neoformans ATCC 90112, pH 7
[19] = ATCC90112, pH 7, Cryptococcus neoformans ATCC 90112, pH 7, repeat experiment

Question: Which results are given for `COc1cc(C=C[N+](=O)[O-])cc(OC)c1OC` [TMPN, 1-(3′,4′,5′-trimethoxyphenyl)-2-nitro-ethylene]?
Answer: MFC Range (C. neoformans ATCC 90112; C. neoformans ATCC 90112): 4 µg/mL (≈ 16.7 µM); MIC Range (C. neoformans ATCC 90112; C. neoformans ATCC 90112): 2 µg/mL (≈ 8.36 µM); MFC (C. neoformans ATCC 90112; [10]): 4 µg/mL (≈ 16.7 µM); MIC (C. neoformans ATCC 90112; [10]): 4 µg/mL (≈ 16.7 µM); MFC (C. neoformans ATCC 90112; [11]): 4 µg/mL (≈ 16.7 µM); MIC (C. neoformans ATCC 90112; [11]): 4 µg/mL (≈ 16.7 µM); MIC (C. neoformans ATCC 90112; ATCC90112, Cryptococcus neoformans ATCC 90112, 50% human serum): > 64 µg/mL; MFC (C. neoformans ATCC 90112; [12]): 4 µg/mL (≈ 16.7 µM); MIC (C. neoformans ATCC 90112; [12]): 2 µg/mL (≈ 8.36 µM); MFC (C. neoformans ATCC 90112; [13]): 4 µg/mL (≈ 16.7 µM); MIC (C. neoformans ATCC 90112; [13]): 2 µg/mL (≈ 8.36 µM); MFC (C. neoformans ATCC 90112; [14]): 4 µg/mL (≈ 16.7 µM); MIC (C. neoformans ATCC 90112; [14]): 2 µg/mL (≈ 8.36 µM); MFC (C. neoformans ATCC 90112; [15]): 2 µg/mL (≈ 8.36 µM); MIC (C. neoformans ATCC 90112; [15]): 1 µg/mL (≈ 4.18 µM); MFC (C. neoformans ATCC 90112; [16]): 4 µg/mL (≈ 16.7 µM); MIC (C. neoformans ATCC 90112; [16]): 4 µg/mL (≈ 16.7 µM); MFC (C. neoformans ATCC 90112; [17]): 4 µg/mL (≈ 16.7 µM); MIC (C. neoformans ATCC 90112; [17]): 4 µg/mL (≈ 16.7 µM); MFC (C. neoformans ATCC 90112; [18]): 4 µg/mL (≈ 16.7 µM); MIC (C. neoformans ATCC 90112; [18]): 2 µg/mL (≈ 8.36 µM); MFC (C. neoformans ATCC 90112; [19]): 4 µg/mL (≈ 16.7 µM); MIC (C. neoformans ATCC 90112; [19]): 2 µg/mL (≈ 8.36 µM); MFC Range [1]: 16 µg/mL (≈ 66.9 µM); MIC Range [1]: 8 µg/mL (≈ 33.4 µM); MFC Range [2]: 32 µg/mL (≈ 134 µM); MIC Range [2]: 16 µg/mL (≈ 66.9 µM); MIC Range (C. parapsilosis (10)): 16 to 32 µg/mL; MFC Range [3]: 32 µg/mL (≈ 134 µM); MIC Range [3]: 16 µg/mL (≈ 66.9 µM); MIC Range (C. glabrata (8)): 8 to 32 µg/mL; MFC Range (C. glabrata ATCC 2001): 16 µg/mL (≈ 66.9 µM); MIC Range (C. glabrata ATCC 2001): 8 µg/mL (≈ 33.4 µM); MFC Range (C. glabrata ATCC 90030): 16 µg/mL (≈ 66.9 µM); MIC Range (C. glabrata ATCC 90030): 4 µg/mL (≈ 16.7 µM); MFC Range [4]: >64 µg/mL; MIC Range [4]: 32 µg/mL (≈ 134 µM); MFC Range (T. ovoides ATCC 90040): 32 µg/mL (≈ 134 µM); MIC Range (T. ovoides ATCC 90040): 16 µg/mL (≈ 66.9 µM); MIC Range [5]: 2 µg/mL (≈ 8.36 µM); MFC Range [6]: 64 µg/mL (≈ 268 µM); MIC Range [6]: 32 µg/mL (≈ 134 µM); MFC Range [7]: >64 µg/mL; MIC Range [7]: 8 µg/mL (≈ 33.4 µM); MFC Range [8]: >64 µg/mL; MIC Range [8]: 32 µg/mL (≈ 134 µM); MFC Range (A. nidulans strain FGSC4): 16 µg/mL (≈ 66.9 µM); MIC Range (A. nidulans strain FGSC4): 8 µg/mL (≈ 33.4 µM); antifungal spectrum in broth macrodilution assays [9]: broad-spectrum antifungal activity; activity in the presence of serum ([9]; 50% human serum): not active against all species; fungicidal action ([9]; 132 reference strains and clinical isolates, incl. those resistant to fluconazole, ketoconazole, amphotericin B or flucytosine): fungicidal for the majority; effect of media pH on activity (MICs and MFCs) ([9]; pH 5, pH 6 and pH 7): unaffected; also recorded: identical or differed by no more than a single 2-fold dilution; inhibition of [^3H]colchicine binding to tubulin (bovine brain tubulin; 5 μM (combretastatin A-4 1.6 μg/ml; TMPN 1.2 μg/ml)): 13±0.5%; inhibition of [^3H]colchicine binding to tubulin (bovine brain tubulin; 12 μg/ml (50 uM)): 69±0.5%
